# Read-outs that look alike come from different tables or passages of the source.
# Columns and labels:
# [1] = set-up: method as in doi:10.1039/C5MD00508F; conditions: pH 7.4, shake-flask; cited from earlier work
# [2] = pH 2, reversed-phase HPLC
# Experimental: The octanol-water (buffer) partition coefficient of ^18F-Alakyne and ^18F-Ala-folate was determined using the standard shake-flask method. Relative lipophilicity (k’ values) was determined by HPLC with an isocratic acetonitrile-phosphoric acid buffer eluent system at pH 2.4 as described elsewhere.
# folate receptor (FR) = biological target: T1, folate receptor (FR) (Homo sapiens, UniProt P15328); experiment: Displacement assay using KB cells and [^3H]folic acid; format: binding
# T1 construct: endogenous in cells; host or cells: KB cells (human, from the German Collection of Microorganisms and Cell Cultures)
# T1 sequence (P15328 25-257): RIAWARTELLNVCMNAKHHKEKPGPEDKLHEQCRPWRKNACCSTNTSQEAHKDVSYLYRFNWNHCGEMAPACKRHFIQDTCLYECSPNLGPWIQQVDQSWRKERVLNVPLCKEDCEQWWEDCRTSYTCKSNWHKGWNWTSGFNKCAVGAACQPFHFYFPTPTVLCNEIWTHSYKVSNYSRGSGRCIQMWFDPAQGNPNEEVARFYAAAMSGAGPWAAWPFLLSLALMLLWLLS
# [3] = set-up: method as in PMID 15745749; conditions: pH 2, reversed-phase HPLC; cited from earlier work
compound,measurement,setting,value
O=C(CCOCCOCCOCC[18F])NCCC(=O)N1Cc2ccccc2C#Cc2ccccc21 [^18F-DBCO],logD7.4 Value,[1],1.2 ± 0.07 [18]
Nc1nc2ncc(CNc3ccc(C(=O)NC(CCC(=O)NCCOCCOCCOCCn4cc(CNC(CF)C(=O)O)nn4)C(=O)O)cc3)nc2c(=O)[nH]1 (stereo not drawn) [^19F-Ala-folate],k′ Value,[2],0.27
same,Ki,folate receptor (FR); Cheng-Prusoff equation with Kd ([^3H]folic acid) = 1.0 nM,5.5 ± 0.4 nM
same,IC50,"folate receptor (FR); KB-cells, [^3H]folic acid",6.4 ± 0.5 nM
same,pIC50,"folate receptor (FR); KB-cells, [^3H]folic acid",8.20 ± 0.05
"Nc1nc(=O)c2nc(CNc3ccc(C(=O)N[C@@H](CCC(=O)O)C(=O)O)cc3)cnc2[nH]1 [native folic acid, folic acid]",k′ Value,[3],0.3 [5]
